The source made the active and inactive calls.
What was measured:
[1] = molecular target: Serine/threonine-protein kinase PLK4 (Homo sapiens, UniProt O00444); format: functional;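 further: PLK4 measured as one member of a kinome-wide kinase profiling panel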
[2] = molecular target: MAP kinase-interacting serine/threonine-protein kinase 2 (Homo sapiens, UniProt Q9HBH9); format: functional
[3] = molecular target: Serine/threonine-protein kinase MRCK alpha (Homo sapiens, UniProt Q5VT25); format: functional
Chain of Serine/threonine-protein kinase MRCK alpha (Q5VT25 whole entry): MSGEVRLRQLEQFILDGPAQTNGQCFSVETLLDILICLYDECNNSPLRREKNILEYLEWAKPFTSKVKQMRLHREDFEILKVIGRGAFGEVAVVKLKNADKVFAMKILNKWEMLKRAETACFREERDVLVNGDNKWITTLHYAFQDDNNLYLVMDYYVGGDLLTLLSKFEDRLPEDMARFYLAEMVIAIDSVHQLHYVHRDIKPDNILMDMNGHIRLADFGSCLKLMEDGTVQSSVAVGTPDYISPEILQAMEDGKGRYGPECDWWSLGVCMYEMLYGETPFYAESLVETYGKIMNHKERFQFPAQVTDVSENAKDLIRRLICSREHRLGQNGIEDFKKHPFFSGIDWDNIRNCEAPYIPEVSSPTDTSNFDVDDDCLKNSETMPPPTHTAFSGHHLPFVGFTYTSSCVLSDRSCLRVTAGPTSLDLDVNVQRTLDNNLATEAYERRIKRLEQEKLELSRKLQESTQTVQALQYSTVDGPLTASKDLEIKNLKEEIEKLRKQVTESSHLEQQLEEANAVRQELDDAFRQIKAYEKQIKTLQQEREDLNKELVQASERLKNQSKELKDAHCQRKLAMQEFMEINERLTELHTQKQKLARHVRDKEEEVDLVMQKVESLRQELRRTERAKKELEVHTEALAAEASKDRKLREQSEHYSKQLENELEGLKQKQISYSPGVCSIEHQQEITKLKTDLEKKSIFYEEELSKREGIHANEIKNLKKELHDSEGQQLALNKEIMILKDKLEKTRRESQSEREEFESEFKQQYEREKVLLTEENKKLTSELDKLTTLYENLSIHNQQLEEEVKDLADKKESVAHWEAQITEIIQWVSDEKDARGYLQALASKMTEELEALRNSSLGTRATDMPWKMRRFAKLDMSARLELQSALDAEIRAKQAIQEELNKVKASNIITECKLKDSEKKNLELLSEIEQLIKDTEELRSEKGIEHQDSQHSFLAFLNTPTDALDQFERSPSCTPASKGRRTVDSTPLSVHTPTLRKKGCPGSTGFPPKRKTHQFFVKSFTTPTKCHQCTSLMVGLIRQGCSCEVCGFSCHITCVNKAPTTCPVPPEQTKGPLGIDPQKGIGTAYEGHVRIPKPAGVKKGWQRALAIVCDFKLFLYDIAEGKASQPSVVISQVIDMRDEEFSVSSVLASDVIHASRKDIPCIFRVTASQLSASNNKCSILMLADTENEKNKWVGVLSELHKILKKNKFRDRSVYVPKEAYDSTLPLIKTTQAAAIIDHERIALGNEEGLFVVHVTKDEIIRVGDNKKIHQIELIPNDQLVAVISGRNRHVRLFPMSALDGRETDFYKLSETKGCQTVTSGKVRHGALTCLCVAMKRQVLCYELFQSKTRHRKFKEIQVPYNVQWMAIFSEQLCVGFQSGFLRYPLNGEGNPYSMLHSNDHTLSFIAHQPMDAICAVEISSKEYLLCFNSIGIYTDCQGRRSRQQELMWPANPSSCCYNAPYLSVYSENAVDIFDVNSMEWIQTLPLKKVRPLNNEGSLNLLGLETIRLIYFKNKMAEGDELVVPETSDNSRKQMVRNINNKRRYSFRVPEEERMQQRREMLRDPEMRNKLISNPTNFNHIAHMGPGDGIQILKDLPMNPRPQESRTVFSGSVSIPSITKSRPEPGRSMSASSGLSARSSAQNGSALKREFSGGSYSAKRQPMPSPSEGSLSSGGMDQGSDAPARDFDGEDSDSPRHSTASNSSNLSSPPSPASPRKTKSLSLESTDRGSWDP

[4] = NIH-3T3 fibroblast cytotoxicity, dose response, cytotoxicity control, cell-based, fluorescence, Alamar Blue, secondary assay (AID 2327); format: functional;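 further: NIH-3T3 mouse fibroblasts cultured with fluconazole at 8 µg/mL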
Exodeoxyribonuclease V = molecular target: T1, Exodeoxyribonuclease V (Escherichia coli (strain K12), UniProt P04993+P07648+P08394); test: E. coli RecBCD inhibitors, dose response, counter-screen for AddAB inhibitor project, absorbance, V66 E. coli, mutant T4 phage (AID 492957); format: functional, cell-based, Escherichia coli str. K-12 substr. MG1655
T1 sequence (P04993 whole entry): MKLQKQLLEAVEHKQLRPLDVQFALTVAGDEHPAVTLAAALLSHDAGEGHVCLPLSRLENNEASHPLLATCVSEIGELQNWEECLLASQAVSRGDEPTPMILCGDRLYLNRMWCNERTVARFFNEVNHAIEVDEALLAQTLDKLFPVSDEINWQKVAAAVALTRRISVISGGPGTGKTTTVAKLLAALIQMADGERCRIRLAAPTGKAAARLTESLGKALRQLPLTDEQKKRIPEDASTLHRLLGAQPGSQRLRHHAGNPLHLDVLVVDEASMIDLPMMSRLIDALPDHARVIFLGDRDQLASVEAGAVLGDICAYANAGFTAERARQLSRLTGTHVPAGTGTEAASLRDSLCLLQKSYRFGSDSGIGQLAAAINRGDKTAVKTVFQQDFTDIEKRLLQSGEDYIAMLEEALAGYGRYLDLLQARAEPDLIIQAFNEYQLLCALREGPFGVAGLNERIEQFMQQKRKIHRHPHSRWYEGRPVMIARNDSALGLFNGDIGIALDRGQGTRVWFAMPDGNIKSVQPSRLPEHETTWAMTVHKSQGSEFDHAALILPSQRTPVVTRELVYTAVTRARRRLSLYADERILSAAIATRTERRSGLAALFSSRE
T1 sequence (P07648 whole entry): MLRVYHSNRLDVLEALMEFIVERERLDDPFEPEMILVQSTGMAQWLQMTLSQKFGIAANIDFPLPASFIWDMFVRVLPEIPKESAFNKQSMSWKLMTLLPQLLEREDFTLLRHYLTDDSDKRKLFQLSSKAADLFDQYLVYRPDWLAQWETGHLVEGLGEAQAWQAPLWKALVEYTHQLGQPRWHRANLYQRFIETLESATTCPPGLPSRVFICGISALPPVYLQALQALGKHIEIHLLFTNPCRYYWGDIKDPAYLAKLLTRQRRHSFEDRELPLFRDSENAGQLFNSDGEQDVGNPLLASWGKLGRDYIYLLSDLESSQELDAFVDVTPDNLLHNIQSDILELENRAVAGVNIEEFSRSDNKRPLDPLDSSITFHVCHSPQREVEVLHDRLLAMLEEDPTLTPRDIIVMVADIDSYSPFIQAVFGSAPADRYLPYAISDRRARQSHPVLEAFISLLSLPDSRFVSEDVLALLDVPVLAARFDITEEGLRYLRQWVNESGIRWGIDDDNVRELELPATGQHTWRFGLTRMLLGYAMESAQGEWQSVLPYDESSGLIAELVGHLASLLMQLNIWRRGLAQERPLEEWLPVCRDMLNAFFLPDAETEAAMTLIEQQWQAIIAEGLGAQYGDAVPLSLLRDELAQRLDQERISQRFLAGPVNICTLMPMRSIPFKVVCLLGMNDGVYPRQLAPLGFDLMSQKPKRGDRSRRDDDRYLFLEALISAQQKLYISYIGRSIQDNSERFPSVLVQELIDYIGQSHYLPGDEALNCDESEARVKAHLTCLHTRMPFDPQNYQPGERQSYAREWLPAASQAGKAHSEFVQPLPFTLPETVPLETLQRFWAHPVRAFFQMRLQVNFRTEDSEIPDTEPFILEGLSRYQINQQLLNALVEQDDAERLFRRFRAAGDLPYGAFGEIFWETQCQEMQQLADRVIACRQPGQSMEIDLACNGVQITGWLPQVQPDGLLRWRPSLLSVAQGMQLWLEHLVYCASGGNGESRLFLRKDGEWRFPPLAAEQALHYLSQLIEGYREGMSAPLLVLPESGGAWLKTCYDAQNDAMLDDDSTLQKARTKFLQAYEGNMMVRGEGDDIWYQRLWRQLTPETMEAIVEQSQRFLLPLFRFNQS
T1 sequence (P08394 whole entry): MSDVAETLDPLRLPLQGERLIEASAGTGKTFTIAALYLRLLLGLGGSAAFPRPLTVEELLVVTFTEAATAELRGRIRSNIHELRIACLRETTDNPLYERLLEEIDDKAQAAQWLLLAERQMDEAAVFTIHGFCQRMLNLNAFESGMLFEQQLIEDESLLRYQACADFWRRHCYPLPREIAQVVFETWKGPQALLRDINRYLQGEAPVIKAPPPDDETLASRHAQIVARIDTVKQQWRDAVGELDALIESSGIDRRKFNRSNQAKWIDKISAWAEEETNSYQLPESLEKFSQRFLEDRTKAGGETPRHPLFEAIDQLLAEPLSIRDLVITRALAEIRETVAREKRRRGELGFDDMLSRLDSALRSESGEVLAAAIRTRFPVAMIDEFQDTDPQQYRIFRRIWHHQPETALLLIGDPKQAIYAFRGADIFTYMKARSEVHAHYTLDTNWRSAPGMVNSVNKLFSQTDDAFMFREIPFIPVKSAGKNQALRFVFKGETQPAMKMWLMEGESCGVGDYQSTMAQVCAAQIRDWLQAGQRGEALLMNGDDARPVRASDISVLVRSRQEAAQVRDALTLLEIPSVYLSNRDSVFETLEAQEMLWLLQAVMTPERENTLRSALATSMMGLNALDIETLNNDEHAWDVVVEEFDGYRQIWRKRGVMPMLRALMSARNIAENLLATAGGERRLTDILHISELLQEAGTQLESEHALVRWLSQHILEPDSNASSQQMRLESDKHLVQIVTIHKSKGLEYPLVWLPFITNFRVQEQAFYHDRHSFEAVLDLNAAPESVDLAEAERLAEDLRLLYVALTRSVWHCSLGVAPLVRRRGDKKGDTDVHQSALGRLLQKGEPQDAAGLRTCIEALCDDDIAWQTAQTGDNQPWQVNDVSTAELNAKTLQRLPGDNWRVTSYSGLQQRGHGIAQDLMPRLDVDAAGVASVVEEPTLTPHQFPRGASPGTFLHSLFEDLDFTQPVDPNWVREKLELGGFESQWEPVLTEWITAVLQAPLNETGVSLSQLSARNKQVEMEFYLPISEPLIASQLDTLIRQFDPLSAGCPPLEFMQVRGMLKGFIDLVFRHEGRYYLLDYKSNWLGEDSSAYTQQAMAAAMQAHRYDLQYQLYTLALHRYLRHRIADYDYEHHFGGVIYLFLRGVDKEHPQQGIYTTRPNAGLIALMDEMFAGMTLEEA

Chain of Serine/threonine-protein kinase PLK4 (O00444 whole entry): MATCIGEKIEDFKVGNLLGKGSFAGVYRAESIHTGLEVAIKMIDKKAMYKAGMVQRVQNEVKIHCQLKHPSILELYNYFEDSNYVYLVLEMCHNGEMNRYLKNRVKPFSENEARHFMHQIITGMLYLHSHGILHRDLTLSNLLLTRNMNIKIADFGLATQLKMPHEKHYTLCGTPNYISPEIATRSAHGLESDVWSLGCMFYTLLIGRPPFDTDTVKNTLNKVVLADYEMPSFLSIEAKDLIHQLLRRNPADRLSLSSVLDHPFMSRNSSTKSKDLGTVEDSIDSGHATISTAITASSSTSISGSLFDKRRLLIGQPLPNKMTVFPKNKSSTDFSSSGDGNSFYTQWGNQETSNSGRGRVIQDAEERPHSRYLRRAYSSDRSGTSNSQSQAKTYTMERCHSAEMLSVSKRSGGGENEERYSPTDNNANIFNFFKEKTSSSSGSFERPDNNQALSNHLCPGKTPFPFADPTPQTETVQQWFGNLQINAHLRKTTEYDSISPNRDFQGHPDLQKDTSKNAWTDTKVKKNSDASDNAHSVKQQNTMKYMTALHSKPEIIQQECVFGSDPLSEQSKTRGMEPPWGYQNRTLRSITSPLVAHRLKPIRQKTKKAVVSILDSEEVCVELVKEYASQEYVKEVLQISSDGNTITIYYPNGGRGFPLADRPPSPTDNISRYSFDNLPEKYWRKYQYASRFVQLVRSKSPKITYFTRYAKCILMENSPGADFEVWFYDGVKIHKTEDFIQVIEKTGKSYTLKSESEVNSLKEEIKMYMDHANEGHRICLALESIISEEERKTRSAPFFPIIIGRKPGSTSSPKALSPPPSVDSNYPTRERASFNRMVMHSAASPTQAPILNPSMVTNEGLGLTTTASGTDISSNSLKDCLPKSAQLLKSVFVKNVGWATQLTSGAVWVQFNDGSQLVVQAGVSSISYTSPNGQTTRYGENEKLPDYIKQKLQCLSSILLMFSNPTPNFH
Chain of MAP kinase-interacting serine/threonine-protein kinase 2 (Q9HBH9 whole entry): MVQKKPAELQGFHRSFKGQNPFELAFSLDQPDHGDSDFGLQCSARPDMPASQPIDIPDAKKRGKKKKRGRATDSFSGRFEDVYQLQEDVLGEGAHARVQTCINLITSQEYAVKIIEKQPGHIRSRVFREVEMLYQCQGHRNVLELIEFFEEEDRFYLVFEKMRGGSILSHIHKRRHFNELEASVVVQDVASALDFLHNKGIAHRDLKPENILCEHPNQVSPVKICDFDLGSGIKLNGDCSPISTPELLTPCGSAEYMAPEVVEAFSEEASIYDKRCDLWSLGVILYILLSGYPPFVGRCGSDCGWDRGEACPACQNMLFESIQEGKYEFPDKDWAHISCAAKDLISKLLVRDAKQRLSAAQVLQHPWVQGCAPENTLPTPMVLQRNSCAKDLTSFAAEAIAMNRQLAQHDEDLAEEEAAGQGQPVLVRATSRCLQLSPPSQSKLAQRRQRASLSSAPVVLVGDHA

Row | Ki [1] | Ki [2] | Ki [3] | Compound | EC50 [4] | IC50 (Exodeoxyribonuclease V)
1 | 0.251 µM (active) | 0.794 µM (active) | 2 µM (active) | CS(=O)(=O)N(Cc1ccc2[nH]c(=O)c3cccn3c2c1)C1CC1 |  | 
2 |  |  |  | Cc1cc(NC(c2ccc(Cl)cc2)c2ccc3cccnc3c2O)no1 (stereo not given) | 22 µM (active) | > 119 µM (inactive)

— ChEMBL document CHEMBL1201862, “PubChem BioAssay data set” (2004)
